Experiments:
human P2X2/3 receptor = target: T1, human P2X2/3 receptor (Homo sapiens, UniProt P56373+Q9UBL9); assay: P2X2/3 FLIPR (Fluorometric Imaging Plate Reader) assay; format: cell-based; conditions: transfected CHO-K1 cells; agonist α,β-meATP 5 μM; Fluo-3 calcium fluorescence; read-out: pKi for the P2X2/3 receptor (converted)
T1 construct: expressed in transfected cells; host or cells: CHO-K1
T1 sequence (Q9UBL9 1-471): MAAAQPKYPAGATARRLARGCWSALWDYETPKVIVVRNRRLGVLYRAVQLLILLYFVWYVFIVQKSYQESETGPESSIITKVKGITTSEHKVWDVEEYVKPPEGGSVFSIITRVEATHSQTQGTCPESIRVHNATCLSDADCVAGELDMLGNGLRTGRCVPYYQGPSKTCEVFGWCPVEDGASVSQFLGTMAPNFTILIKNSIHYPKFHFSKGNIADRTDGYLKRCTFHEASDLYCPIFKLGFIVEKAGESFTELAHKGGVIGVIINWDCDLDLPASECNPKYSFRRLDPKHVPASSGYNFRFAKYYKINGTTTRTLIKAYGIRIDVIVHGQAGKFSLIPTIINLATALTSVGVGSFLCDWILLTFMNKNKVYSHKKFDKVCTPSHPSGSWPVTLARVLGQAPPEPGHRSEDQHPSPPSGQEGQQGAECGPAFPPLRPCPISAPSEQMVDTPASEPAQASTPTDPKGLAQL
T1 sequence (P56373 1-397): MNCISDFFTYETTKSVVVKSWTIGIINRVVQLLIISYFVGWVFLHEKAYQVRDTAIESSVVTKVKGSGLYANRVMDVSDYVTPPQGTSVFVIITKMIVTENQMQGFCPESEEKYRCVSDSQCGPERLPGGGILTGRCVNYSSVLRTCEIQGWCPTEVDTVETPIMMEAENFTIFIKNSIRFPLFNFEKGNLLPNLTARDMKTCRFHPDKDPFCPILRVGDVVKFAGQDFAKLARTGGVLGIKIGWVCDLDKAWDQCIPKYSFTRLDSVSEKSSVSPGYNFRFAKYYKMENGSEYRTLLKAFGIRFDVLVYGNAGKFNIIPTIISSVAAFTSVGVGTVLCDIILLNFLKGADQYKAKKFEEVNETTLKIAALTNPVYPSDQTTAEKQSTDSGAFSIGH
Description: (§1) CHO-K1 cells were transfected with cloned rat P2X3 or human P2X2/3 receptor subunits and passaged in flasks. 18-24 hours before the FLIPR experiment, cells were released from their flasks, centrifuged, and resuspended in nutrient medium at 2.5×10^5 cells/ml. The cells were aliquoted into black-walled 96-well plates at a density of 50,000 cells/well and incubated overnight in 5% CO2 at 37° C. On the day of the experiment, cells were washed in FLIPR buffer (calcium- and magnesium-free Hank's balanced salt solution, 10 mM HEPES, 2 mM CaCl2, 2.5 mM probenecid; FB). Each well received 100 μl FB and 100 μl of the fluorescent dye Fluo-3 AM [2 μM final conc.]. […]
(§2) Test compounds (dissolved in DMSO at 10 mM and serially diluted with FB) or vehicle were added to each well (25 μl of a 4× solution) and allowed to equilibrate for 20 minutes at room temperature. The plates were then placed in the FLIPR and a baseline fluorescence measurement (excitation at 488 nm and emission at 510-570 nm) was obtained for 10 seconds before a 100 μl/well agonist or vehicle addition. […] Fluorescence was measured for an additional 2 minutes at 1 second intervals after agonist addition. A final addition of ionomycin (5 μM, final concentration) was made to each well of the FLIPR test plate to establish cell viability and maximum fluorescence of dye-bound cytosolic calcium. […]

rat P2X3 receptor = target: T2, rat P2X3 receptor (Rattus norvegicus, UniProt P49654); assay: P2X3 FLIPR (Fluorometric Imaging Plate Reader) assay; format: cell-based; conditions: transfected CHO-K1 cells; agonist α,β-meATP 1 μM; Fluo-3 calcium fluorescence; read-out: pIC50 for the P2X3 receptor (converted)
T2 construct: expressed in transfected cells; host or cells: CHO-K1
T2 sequence (P49654 1-397): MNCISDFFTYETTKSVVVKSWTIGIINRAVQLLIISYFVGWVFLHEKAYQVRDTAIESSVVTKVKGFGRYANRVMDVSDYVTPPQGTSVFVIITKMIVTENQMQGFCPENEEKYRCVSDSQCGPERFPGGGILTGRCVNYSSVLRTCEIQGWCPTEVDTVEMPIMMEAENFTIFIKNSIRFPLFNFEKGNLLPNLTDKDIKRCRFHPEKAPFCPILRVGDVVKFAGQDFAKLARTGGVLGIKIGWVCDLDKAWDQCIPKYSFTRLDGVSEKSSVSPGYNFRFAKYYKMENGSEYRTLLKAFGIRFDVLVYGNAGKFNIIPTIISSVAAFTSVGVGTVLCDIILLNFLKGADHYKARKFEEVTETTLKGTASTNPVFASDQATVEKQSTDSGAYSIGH
Description: as §1, §2

Row | Ki (human P2X2/3 receptor) [nM] | IC50 (rat P2X3 receptor) [nM] | Compound
1 | ~46.8 |  | Cc1ccc(-c2cc(C(=O)NC(C)c3cnccn3)cc(-n3ccnc3C(C)C)c2)cc1 (centres unmarked) [Compound 27, 5-(2-Isopropyl-imidazol-1-yl)-4′-methyl-biphenyl-3-carboxylic acid (1-pyrazin-2-yl-ethyl)-amide]
2 |  | ~2.82 | CCc1nccn1-c1cc(C(=O)NCc2cnc(C)cn2)cc(-c2ccc(C)cn2)c1 [Compound 29, 3-(2-Ethyl-imidazol-1-yl)-N-(5-methyl-pyrazrn-2-ylmethyl)-5-(5-methyl-pyridin-2-yl)-benzamide]

Source: patent US7858654B2, “Imidazole-substituted arylamides as P2X3 and P2X2/3 antagonists” (Roche Palo Alto LLC, priority 2007, dated 2010)
